Laboratory results reported in US20180296630A1, “METHODS AND COMPOSITIONS FOR PREVENTING OR TREATING OPHTHALMIC CONDITIONS” (Stealth BioTherapeutics Corp, priority 2012, published 2018).

Tests used:
[1] = system: trabecular meshwork cells from POAG patients (GTM); test: LDH cytotoxicity assay, GTM cells; format: cell-based, human
Text: In this Example, the effects of the aromatic-cationic peptides of the invention were compared between trabecular meshwork cells from POAG patients (GTM) and trabecular meshwork cells from non-diseased individuals (HTM). Methods useful in the studies of the present invention have been described. See generally, He Y, Ge J, Tombran-Tink J., Mitochondrial defects and dysfunction in calcium regulation in glaucomatous trabecular meshwork cells. Invest Ophthalmol Vis Sci. 2008, 49(11):4912-22; He Y, Leung K W, Zhang Y H, Duan S, Zhong X F, Jiang R Z, Peng Z, Tombran-Tink J, Ge J. Mitochondrial complex I defect induces ROS release and degeneration in trabecular meshwork cells of POAG patients: protection by antioxidants. Invest Ophthalmol Vis Sci. 2008, 49(4):1447-58. […]
To assess whether D-Arg-2′,6′-Dmt-Lys-Phe-NH2 had cytotoxic effects of HTM or GTM cells, various concentrations of D-Arg-2′,6′-Dmt-Lys-Phe-NH2 were administered to cells and the cytotoxicity was measured using an LDH assay. […] The assay quantitatively measures the stable, cytosolic, lactate dehydrogenase (LDH) enzyme, which is released from damaged cells. The released LDH is measured with a coupled enzymatic reaction that results in the conversion of a tetrazolium salt (iodonitrotetrazolium (INT)) into a red color formazan by diaphorase. […] The LDH activity is determined as NADH oxidation or INT reduction over a defined time period.

[2] = system: STZ and HFD/STZ diabetic rats; test: Inner blood-retinal barrier function (Evans blue extravasation) in diabetic SD rats; format: in vivo, Sprague-Dawley rat; conditions: compared to rats on a HFD not administered peptide
Method: FIGS. 10A and 10B are charts showing the integrity of the blood-retinal barrier of normal rats (NRC), diabetic rats, and diabetic rats treated with Phe-D-Arg-Phe-Lys-NH2 (SS-20) or D-Arg-2′,6′-Dmt-Lys-Phe-NH2(SS-31), as analyzed by Evans blue extravasation. (A) diabetes induced by STZ; (B) diabetes induced by HFD/STZ.
A rat model of diabetes was established by combination of 6-week HFD and low dose of STZ (30 mg/kg) injection or a single high dose of STZ (65 mg/kg) in SD rats. See generally, K. Srinivasan, B. Viswanad, Lydia Asrat, C. L. Kaul and P. Ramarao, Combination of high-fat diet-fed and low-dose streptozotocin-treated rat: A model for type 2 diabetes and pharmacological screening, Pharmacological Research, 52(4): 313-320, 2005. Rats of the same batch fed with normal chow (NRC) were used as a control.
The effect of the aromatic-cationic peptides on the inner blood-retinal barrier function in the SD rat model was investigated.

[3] = system: OIR mouse model; test: Oxygen-induced retinopathy (OIR) mouse model; format: in vivo
Text: In this model, 7-day-old mouse pups with partially developed retinal vasculature were subjected to hyperoxia (75% oxygen) for 5 days, which stops retinal vessel growth and causes significant vaso-obliteration. On postnatal day 12, the pups were returned to room air, and by postnatal day 17, a florid compensatory retinal neovascularization occurred. This model of pathological neovascularization has been widely used as a substitute for proliferative diabetic retinopathy (DR).
To examine the effects of the aromatic-cationic peptides of the invention on prevention of OIR, OIR was induced in mouse pups and the mice were simultaneously administered an aromatic-cationic peptide (e.g., Phe-D-Arg-Phe-Lys-NH2 or D-Arg-2′,6′-Dmt-Lys-Phe-NH2) for approximately 6 weeks. The results are shown in FIG. 26 and indicate that treatment with D-Arg-2′,6′-Dmt-Lys-Phe-NH2 prevented the compensatory retinal neovascularization. As such, the aromatic-cationic peptides of the invention are useful in methods of preventing proliferative diabetic retinopathy in mammalian subjects.

[4] = system: STZ-treated mice; test: Spatial frequency (SPF) threshold in STZ-treated / diabetic-diet mice; format: in vivo
Method: Subjects were maintained on a normal diet (ND) or diabetic diet (DD) for up to 32 weeks, and were administered D-Arg-2′,6′-Dmt-Lys-Phe-NH2 or control vehicle with or without streptozotocin. Results are shown in FIG. 41, with response values are averaged for each eye.

D-Arg-2′,6′-Dmt-Lys-Phe-NH2
cytotoxicity ([1]; 10^−4M): no cytotoxicity
viability (LDH assay) ([1]; various concentrations): does not affect the viability
inner blood-retinal barrier function [2]: improved
avascular area ([3]; OIR mouse model (FIG. 26)): reduced
compensatory retinal neovascularization ([3]; OIR mouse pups): prevented
rescue of visual impairment by eyedrop versus systemic administration ([4]; STZ-treated animals maintained on a diabetic diet, eyedrop): one month sooner
time by which the visual deficit was fully rescued ([4]; STZ-treated animals, systemic treatment initiated at 12 weeks): ≤ 24 weeks
time by which rescue was shown ([4]; animals on a diabetic diet alone): ≤ 30 weeks
time by which the visual deficit was fully restored ([4]; animals on a diabetic diet and administered STZ): ≤ 24 weeks
visual impairment (spatial frequency threshold) ([4]; animals with metabolic dysfunction): rescued
